Data as given in publication PMC3199867, “Targeting surface nucleolin with multivalent HB-19 and related Nucant pseudopeptides results in distinct inhibitory mechanisms depending on the malignant tumor cell type” (BMC Cancer, 2011).

Tests used:
MMP-9 = test: mRNA expression by RT-PCR in SW620 cells; format: cell-based, human; conditions: SW620, 10 μM, 24 hours post-seeding
Protocol: (§1) SW620 cells were cultured in the absence or presence of N7 before extraction for total RNA using RNeasy Mini Kit (Qiagen) according to the manufacturer's instructions. RT was carried out with oligo(dT) and 2-4 μg of total RNA using Superscript II Reverse Transcriptase (Invitrogen). PCR was performed in a RoboCycler 96 (Stratagene, La Jolla, CA, USA) with specific primers for human nucleolin (referred to as NCL) 5'-[…]-3' and 5'-[…]-3' (835 bp); glyceraldehyde-3-phosphate dehydrogenase (GAPDH) 5'-TGAAGG-[…]-3' and 5'-[…]-CCAC-3' (983 bp); nucleophosmin (NPM or B23) 5'-[…]-3' and 5'-[…]-3' (320 bp); matrix metalloproteinase-2 (MMP-2) 5'-[…]-3' and 5'-[…]-3' (580 bp); matrix metalloproteinase-9 (MMP-9) 5'-[…] TCAGAGC-3' and 5'-[…]-3' (243 bp); tissue inhibitor of metalloproteinase 1 (TIMP-1) 5'-[…]-3' and 5'-[…]-3' (667 bp); tissue inhibitor of metalloproteinase 2 (TIMP-2) 5'-[…]-3' and 5'-[…]-3' (405 bp). PCR amplification conditions were: 95°C for 5 min, 30 cycles at 95°C for 30 sec, 60°C for 30 sec and 72°C for 45 sec, and 72°C for 5 min (for NCL and GAPDH), 95°C for 5 min, 30 cycles at 95°C for 30 sec, 53°C for 30 sec and 72°C for 30 sec, and 72°C for 5 min (for NPM); 95°C for 5 min, 35 cycles at 95°C for 45 sec, 56°C for 45 sec and 72°C for 45 sec, and 72°C for 5 min (for MMP2 and MMP9); 95°C for 5 min, 30 cycles at 95°C for 45 sec, 59°C for 1 min and 72°C for 1 min 30 sec, and 72°C for 5 min (for TIMP1 and TIMP2).
(§2) Figure 6 Selective down regulation of MMP-9 and nucleolin transcripts in Nucant treated SW620 cells. A. SW620 cells in the absence (lanes -) and presence (lanes +) of 10 μM of N7 were cultured for 24, 48, and 72 hours. B. Dose dependent reduction of MMP-9 and nucleolin transcripts in response to Nucant treatment. Newly seeded SW620 cells were cultured in the absence (lanes 1) and presence of 2.5 (lanes 2), 5 (lanes 3) and 10 (lanes 4) […] of N6 for 20 hours. Total RNA extracts were prepared at different time points and the expression of various transcripts was analyzed by RT-PCR using specific primers (Methods). […]

nucleophosmin = test: mRNA expression by RT-PCR in SW620 cells; format: cell-based, human; conditions: SW620, 10 μM, 24, 48 and 72 hours
Protocol: as §1, §2

nucleolin = test: mRNA expression by RT-PCR in SW620 cells; format: cell-based, human; conditions: SW620, 10 μM, 24, 48 and 72 hours
Protocol: as §1, §2

melanoma TIII cell = test: Cell adhesion; format: cell-based, murine; conditions: after 5 hours of cell seeding, vs untreated control, mean of at least 2 independent experiments
T29 cells = test: Internucleosomal DNA fragmentation (low molecular weight DNA of nucleoplasm, agarose gel); format: cell-based, murine; conditions: T29 cells, 2.5, 5, 10, and 20 μM, 24 hours
From the text: Extraction of nuclei in buffer I (prepared as above) from viable cells results in the recovery of chromatin-free nucleoplasm. However, during cell death when DNA fragmentation occurs, the low molecular weight DNA fragments are recovered in the nucleoplasm. Consequently, supernatant of nuclear extracts from cells undergoing programmed cell death contain low molecular weight DNA fragments, whereas the pellet of the nuclear extracts contain the high molecular weight chromatin. By this experimental approach, DNA fragmentation could be analyzed without interference of the bulky DNA [51]. […] The DNA pellet was resuspended in electrophoresis buffer (10 mM Tris-HCI, pH 8.0, 1 mM EDTA) and analyzed by electrophoresis on 1.5% agarose gels containing […] ethydium bromide.
Figure 7 HB-19 and related multivalent Nucant pseudopeptides induce cell death associated with internucleosomal DNA fragmentation. […] Cell cultures (in triplicate) were monitored for viable cell number daily for 3 days. […] T29 cells seeded at 100,000/ml in 2 ml in the absence (0 μM) or presence of N7 at various concentrations 2.5, 5, 10 and 20 μM were cultured for 3 days and the number of viable cells was determined at day 1, 2, and 3 post-seeding. […] The nuclear extracts were analyzed by immunoblotting using anti-Nt Ab (Methods). […]

Row | Substance | expression of MMP-9 transcripts (MMP-9) | expression of transcripts coding nucleophosmin (nucleophosmin) | transcripts coding nucleolin (nucleolin) | % Inhibition of cell Adhesion (melanoma TIII cell; 2.5 μM) [%] | % Inhibition of cell Adhesion (melanoma TIII cell; 5 μM) [%] | % Inhibition of cell Adhesion (melanoma TIII cell; 10 μM) [%] | % Inhibition of cell Adhesion (melanoma TIII cell; 20 μM) [%] | DNA fragmentation (T29 cells)
1 | Ac-KAKPGKAKPGKAKPG-NH2 [Nucant N7, Presents hexavalently the pseudo-tripeptide Lysψ(CH2N)-Pro-Arg coupled to a similar template as in HB-19] | completely abolished | not affected | marked down regulation | – | – | – | – | –
2 | Ac-Lys-Aib-Gly-Lys-Aib-Gly-Lys-Aib-Gly-Lys-Aib-Gly-Lys-Aib-Gly-Lys-Aib-Gly-CONH2 [Nucant N6, Presents hexavalently the pseudo-tripeptide Lysψ(CH2N)-Pro-Arg coupled to the polypeptide template containing Aib] | – | – | – | 15 | 26 | 38 | 55 | Internucleosomal DNA cleavage
